How the values were obtained:
J774 = experiment: Cytotoxicity against mouse J774 cells
Leishmania donovani = experiment: Antileishmanial activity against Leishmania donovani axenic amastigotes infected in mouse J774 cells measured after 72 hrs by Draq5 staining based high content screening assay; type: functional, organism-based; settings: J774, 72 h
[1] = Selectivity index, ratio of IC50 for mouse J774 cells to IC50 for Leishmania donovani axenic amastigotes infected in mouse J774 cells; type: toxicity, cell-based; settings: read-out: Ratio IC50

Row | Structure (SMILES) | IC50 (J774) [µM] | IC50 (Leishmania donovani) [µM] | selectivity ratio [1]
1 | CC1CCCCC1CN1C(=N)NC[C@@H]1CCCCN1CCNC1=N (stereo partly specified) | 14 | 5.4 | 3
2 | N=C1N(CCCC[C@H]2CNC(=N)N2CCC23CC4CC(CC(C4)C2)C3)CCN1CCc1ccc(-c2ccccc2)cc1 | 23 | 0.7 | 33
3 | N=C1NCCN1CCCC[C@H]1CNC(=N)N1CCC12CC3CC(CC(C3)C1)C2 | 50 | 3.5 | 14
4 | N=C1NC[C@H](CCCCN2CCN(CCc3ccccc3)C2=N)N1 | 20 | 0.6 | 36
5 | Cc1ccc(CCN2C(=N)NC[C@@H]2CCCCN2CCNC2=N)cc1 | 22 | 3.9 | 6
6 | CCCCCCCN1C(=N)N(CCCC[C@@H]2CNC(=N)N2CCCCC2CCCCC2)C[C@@H]1CC1CCCCC1 | 50 | 8.9 | 6
7 | N=C1NCCN1CCCC[C@H]1CNC(=N)N1CCc1cccc(C(F)(F)F)c1 | 7 | 0.9 | 9
8 | N=C1NCCN1CCc1ccccc1 | 8 | 10 | 1
9 | CCCC[C@H]1CN(CCCC[C@H]2CNC(=N)N2)C(=N)N1 | 50 | 5 to 10 | 5 to 10
10 | CCCC[C@H]1CN(CCCC[C@@H]2CNC(=N)N2CCC23CC4CC(CC(C4)C2)C3)C(=N)N1CCc1ccc(-c2ccccc2)cc1 | 21 | 3.8 | 6
11 | CCCC[C@H]1CNC(=N)N1CCC12CC3CC(CC(C3)C1)C2 | 12 | 4.7 | 3
12 | CCCC[C@H]1CNC(=N)N1CCc1ccccc1 | 25 | 1.1 | 23
13 | N=C1NC[C@H](CCCCN2CCN(CCc3ccc(-c4ccccc4)cc3)C2=N)N1 | 50 | 4.9 | 10
14 | N=C1NCCN1CCCC[C@H]1CNC(=N)N1CCc1ccccc1 | 16 | 1.2 | 13
15 | CCCCCCCN1CCN(CCCC[C@H]2CNC(=N)N2CCCCC2CCCCC2)C1=N | 6 | 3.5 | 2
16 | CCCC[C@H]1CNC(=N)N1CC1CCC(C)CC1 (stereo partly specified) | 6 | 0.6 | 10
17 | CC1CCCC(CCN2C(=N)NC[C@@H]2CCCCN2CCNC2=N)C1 (stereo partly specified) | 19 | 1.8 | 10
18 | CCCC[C@H]1CN(CCCC[C@H]2CNC(=N)N2CCc2cccc(C(F)(F)F)c2)C(=N)N1 | 11 | 3.5 | 3
19 | CCCCCCCN1CCN(CCCC[C@H]2CNC(=N)N2CCc2cccc(C(F)(F)F)c2)C1=N | 9 | 2.5 | 4
20 | N=C1NC[C@H](CCCCN2CCNC2=N)N1 | 50 | 4.8 | 10
21 | N=C1N[C@@H](CC2CCCCC2)CN1CCCC[C@H]1CNC(=N)N1CCCCC1CCCCC1 | 27 | 1.8 | 16
22 | CCCCCCCN1C(=N)N(CCCC[C@H]2CNC(=N)N2)C[C@@H]1CC1CCCCC1 | 50 | 2.5 | 20
23 | N=C1NCCN1CCCC[C@H]1CNC(=N)N1CCCCC1CCCCC1 | 24 | 5.2 | 5
24 | Cc1ccccc1CCN1C(=N)NC[C@@H]1CCCCN1CCNC1=N | 50 | 3.5 | 14
25 | CCCC[C@H]1CNC(=N)N1CCc1ccc(-c2ccccc2)cc1 | 15 | 2.4 | 6
26 | Cc1cccc(CCN2C(=N)NC[C@@H]2CCCCN2CCNC2=N)c1 | 50 | 0.9 | 56
27 | CCCC[C@H]1CN(CCCC[C@@H]2CNC(=N)N2CCc2cccc(C(F)(F)F)c2)C(=N)N1CCCCC1CCCCC1 | 50 | 0.6 | 79
